Test results from patent publication US20170087138A1 (priority 2007, published 2017).
Counter-ions that a name gives are not always drawn.

Tests used:
[1] = Solubility of salts in water, pH of the saturated solution and identity of the precipitate; format: physicochemical; conditions: for solubility (in words): table 3; for Precipitate: whether precipitate isolated after solubility determination is identical to the compound dissolved; for Resulting pH: pH in the saturated solution of the salt
Procedure: If the acid is a liquid it was added neat otherwise it was dissolved in the given solvent prior to addition. After mixing and precipitation stirring was continued overnight and the precipitate collected by filtration. Before drying in vacuum at 30° C. a small reference sample was withdrawn and dried at room temperature without vacuum. This procedure was included in order to test for solvates.

[2] = biological target: T1, human-homomeric 5-HT3A receptors (Homo sapiens, UniProt P46098); assay: 5-HT3A receptor antagonism, voltage clamp in Xenopus oocytes; format: cell-based; conditions: higher concentrations (100-100000 nM)
T1 sequence (P46098 24-478): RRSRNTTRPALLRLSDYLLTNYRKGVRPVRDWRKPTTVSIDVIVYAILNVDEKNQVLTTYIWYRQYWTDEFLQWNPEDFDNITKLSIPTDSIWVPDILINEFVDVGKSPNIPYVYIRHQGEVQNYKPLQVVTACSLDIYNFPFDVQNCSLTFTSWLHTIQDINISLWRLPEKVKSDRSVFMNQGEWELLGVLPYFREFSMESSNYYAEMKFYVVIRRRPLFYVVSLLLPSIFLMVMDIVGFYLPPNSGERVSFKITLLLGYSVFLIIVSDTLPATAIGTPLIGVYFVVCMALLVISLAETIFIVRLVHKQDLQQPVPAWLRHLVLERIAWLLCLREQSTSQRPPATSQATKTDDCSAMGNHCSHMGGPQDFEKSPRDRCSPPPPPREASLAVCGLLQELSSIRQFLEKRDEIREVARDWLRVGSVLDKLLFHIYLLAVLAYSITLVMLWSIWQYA
Procedure: The experiments were carried out as follows. […] Oocytes avoid of the follicle layer were selected and incubated for 24 hours in Modified Barth's Saline buffer [88 mM NaCl, 1 mM KCl, 15 mM HEPES, 2.4 mM NaHCO3, 0.41 mM CaCl2, 0.82 mM MgSO4, 0.3 mM Ca(NO3)2] supplemented with 2 mM sodium pyruvate, 0.1 U/l penicillin and 0.1 μg/l streptomycin. Stage IV-IV oocytes were identified and injected with 12-48 nl of nuclease free water containing 14-50 pg of cRNA coding for human 5-HT3A receptors and incubated at 18° C. until they were used for electrophysiological recordings (1-7 days after injection). […] Cells were impaled with agar plugged 0.5-1 MΩ electrodes containing 3 M KCl and voltage clamped at −90 mV by a GeneClamp 500B amplifier. The oocytes were continuously perfused with Ringer buffer and the drugs were applied in the perfusate.

[3] = system: extracellular levels of acetylcholine in the prefrontal cortex and ventral hippocampus; assay: Microdialysis: extracellular acetylcholine levels in freely-moving rats; format: in vivo; conditions: rat, FIGS. 10A and 10B
Procedure: The experiment was designed to evaluate the effects of compounds of the present invention on extracellular levels of acetylcholine in the prefrontal cortex and ventral hippocampus of freely-moving rats.
Male Sprague-Dawley rats, initially weighing 275-300 g, were used. The animals were housed under a 12-hr light/dark cycle under controlled conditions for regular in-door temperature (21±2° C.) and humidity (55±5%) with food and tap water available ad libitum.
Rats were anaesthetised with hypnorm/dormicum (2 ml/kg) and intracerebral guide cannulas (CMA/12) were stereotaxically implanted into the hippocampus, aiming to position the dialysis probe tip in the ventral hippocampus (co-ordinates: 5.6 mm posterior to bregma, lateral −5.0 mm, 7.0 mm ventral to dura or in the frontal cortex (co-ordinates: 3.2 mm anterior to bregma; lateral, 0.8 mm; 4.0 mm ventral to dura). Anchor screws and acrylic cement were used for fixation of the guide cannulas. The body temperature of the animals was monitored by rectal probe and maintained at 37° C. The rats were allowed to recover from surgery for 2 days, housed singly in cages. On the day of the experiment a microdialysis probe (CMA/12, 0.5 mm diameter, 3 mm length) was inserted through the guide cannula.
The probes were connected via a dual channel swivel to a microinjection pump. […]

C57/B6 mice = assay: Formalin model of neuropathic pain; format: in vivo; conditions: in words
Procedure: The irritation caused by the formalin injection elicits a characteristic biphasic behavioural response, as quantified by the amount of time spent licking the injured paw. The first phase (˜0-10 minutes) represents direct chemical irritation and nociception, whereas the second (˜20-30 minutes) is thought to represent pain of neuropathic origin. The two phases are separated by a quiescent period in which behaviour returns to normal. Measuring the amount of time spent licking the injured paw in the two phases assesses the effectiveness of test compounds to reduce the painful stimuli. Eight C57/B6 mice (ca. 25 g) were tested per group. Table 4 below show the amount of time spent licking the injured paw in the two phases, i.e. 0-5 minutes and 20-30 minutes post formalin injection. The amount of compound administered is calculated as the free base.

healthy volunteers = assay: Multiple dose clinical trial, vital signs including blood pressure; format: in vivo, human; conditions: up to 30 mg/day
Text: 49 subjects received active compound and 21 subjects received placebo.

Compound: Cc1ccc(Sc2ccccc2C2CCNCC2)cc1 (racemic)
- solubility (in words) [1]: exceptionally high solubility
- Precipitate [1]: =start (after

Compound: Cc1ccc(Sc2ccccc2C2CCNCC2)cc1 [Adipicacid, 1,6-hexanedioic acid 2:1]
- Precipitate [1]: =start

Compound: Cc1ccc(Sc2ccccc2C2CCNCC2)cc1 [Citric acid 2:1]
- Precipitate [1]: =Start

Compound: Cc1ccc(Sc2ccccc2C2CCNCC2)cc1 [Compound I, 4-[2-(4-methylphenylsulfanyl)-phenyl]piperidine]
- maximal current, of the maximal current elicited by 5-HT itself [2]: 70-80%
- extra cellular level of acetylcholine in the prefrontal cortex and the hippocampus [3]: increase
- effect in the first phase (direct chemical irritation and nociception) (C57/B6 mice): little effect
- time spent licking paws in the second phase (C57/B6 mice): clear and dose dependent decrease
- blood pressure (healthy volunteers): only at the highest dose were there signs of elevated blood pressure

Compound: Cc1ccc(Sc2ccccc2C2CCNCC2)cc1 [D-tartaric acid, D-2,3-dihydroxy butanedioic acid 1:1]
- Precipitate [1]: Hydrate

Compound: Cc1ccc(Sc2ccccc2C2CCNCC2)cc1 [Fumaric acid 1:1]
- Precipitate [1]: =start

Compound: Cc1ccc(Sc2ccccc2C2CCNCC2)cc1 [Glutamic acid 1:1]
- solubility (in words) [1]: exceptionally high solubility

Compound: Cc1ccc(Sc2ccccc2C2CCNCC2)cc1 [Glutaric acid, 1,5-pentanedioic acid 1:1]
- solubility (in words) [1]: exceptionally high solubility
- Precipitate [1]: =start

Compound: Cc1ccc(Sc2ccccc2C2CCNCC2)cc1 [HBr, 4-(2-(4-tolylsulfanyl)phenyl)-piperidin hydrobromide]
- Resulting pH ([1]; hydrobromide): 7.0
- Precipitate ([1]; hydrobromide): =Start

Compound: Cc1ccc(Sc2ccccc2C2CCNCC2)cc1 [HCl]
- Precipitate [1]: =Start

Compound: Cc1ccc(Sc2ccccc2C2CCNCC2)cc1 [Oxalic acid 1:1]
- Precipitate [1]: =Start

Compound: Cc1ccc(Sc2ccccc2C2CCNCC2)cc1 [Phosphoric acid 1:1]
- Resulting pH [1]: 2.0

Compound: Cc1ccc(Sc2ccccc2C2CCNCC2)cc1 [Sebacoinic acid, 1,8-octanedioic acid 2:1]
- Precipitate [1]: =Start
